Tested on: patients with advanced and/or metastatic solid tumours
Assay: Clinical trial of Volasertib in combination with Cisplatin (arm A) or Carboplatin (arm B)
Format: in vivo
Details: for maximum tolerated dose for volasertib: single 2-hour infusion on day 1 every 3 weeks
Text: Sequential cohorts of three to six patients (pts) received a single 2-hour infusion of Volasertib (V) in combination with Cisplatin (Cis) (arm A) or Carboplatin (Ca) (arm B), on day 1 every 3 weeks. Cis and Ca were given for up to six cycles (Cy), V was continued until disease progression or unacceptable toxicity.

## CC[C@@H]1C(=O)N(C)c2cnc(Nc3ccc(C(=O)N[C@H]4CC[C@H](N5CCN(CC6CC6)CC5)CC4)cc3OC)nc2N1C(C)C [Volasertib, N-[trans-4-[4-(cyclopropylmethyl)-1-piperazinyl]cyclohexyl]-4-[[(7R)-7-ethyl-5,6,7,8-tetrahydro-5-methyl-8-(1-methylethyl)-6-oxo-2-pteridinyl]amino]-3-methoxy-benzamide]
Arm A (with Cisplatin), CHOP-resistant follicular dendritic reticulum cell sarcoma, dose levels A2, A4
  partial responses (PR) observed: two
Arm A (with Cisplatin), pretreated lung cancer, dose level A5, PR yet to be confirmed
  partial responses (PR) observed: one
Arm B (with Carboplatin), heavily-pretreated head and neck carcinoma, dose level B4
  partial responses (PR) observed: one
Both arms together (combination with Cisplatin or Carboplatin), 46 patients
  partial responses (PR) observed: Four
human, in vivo
  side effects (myelosuppression) on combination: without potentiation of those side effects
In combination with carboplatin
  maximum tolerated dose for volasertib: ≥ 300 mg
In combination with cisplatin
  maximum tolerated dose for volasertib: ≥ 300 mg
